From US7825134B2, “Amelioration of cataracts, macular degeneration and other ophthalmic diseases” (Othera Holding, Inc., priority 2003, dated 2010)
“Also recorded” adds a separate entry of the source. Counter-ions that a name gives are not always drawn.

Tests used:
[1] = Pharmacokinetics and ocular tissue distribution of total radioactivity after single topical dose; format: in vivo, New Zealand White (Harlan) rabbits
Procedure: Pharmacokinetics, Ocular Tissue Distribution, and Urinary Excretion of Total Radioactivity Following Single Topical Dose Administration of Compound 1 in Rabbits. The pharmacokinetics, ocular tissue distribution and urinary excretion of total radioactivity following a single topical dose administration of the tritiated hydrochloride of Compound 1 in rabbits was evaluated. Eighteen male New Zealand White (Harlan) rabbits, age 3-6 months, weight 2.1 to 3.0 kg were utilized.
Experimental Design: The experimental design was a randomized, single-treatment study in one group of rabbits administered a single topical application of [^3H]Compound 1-HCl into both eyes. The group consisted of 6 subgroups of 3 animals. At six specified times (0.5, 1, 2, 4, 8 and 24 hours) post-dose, three animals per subgroup were euthanized and terminal samples collected. Animals designated to the 24 hour post-dose subgroup were placed in metabolism cages and urine was collected from 0-12 and 12-24 hours post-dose. Terminal blood was collected by cardiac puncture technique. From each eye, the following ocular tissues were harvested: aqueous humor; vitreous humor; lens; and cornea. Total radioactivity was determined in all samples.
Animals received a single topical ocular dose in each eye, right (OD) followed by left (OS). While slightly pulling away the lower eyelid from the globe, the dose was accurately pipetted onto the cornea and allowed to collect in the lower conjunctival sac. The eyelids were gently held shut for 1 minute after drug instillation and then carefully released.
Data analysis and statistical evaluation: Counts per minute for all assayed samples were converted to disintegrations per minute (DPM) using a Beckman LS6000 counter. Following appropriate background subtraction, DPM values were converted to concentrations (DPM per ml or g). Average DPM per ml or g values were calculated. Mean concentration values of ^3H radioactivity were calculated and converted to equivalents per ml or g based on the measured specific activity and nominal concentration of the administered test article formulation as determined by oxidation. Concentrations of total radioactivity in blood and plasma, amount (% of dose) and concentration in ocular tissue and urine samples were determined. Elimination kinetics including blood, plasma, and tissue half-lives were calculated. Urinary excretion data were also tabulated. Statistical evaluation consisted of descriptive statistical analysis. Pharmacokinetics of radioactivity were evaluated by model independent analyses pending suitability of sample assay results. Non-truncated numerical values were used in the calculations.

[2] = Identification of metabolites of Compound 1 in rabbit aqueous humor (GC/MS); format: in vivo; settings: GC/MS of rabbit aqueous humor after topical dosing
Procedure: Aqueous humor samples, from the in vivo rabbit study described in Example 16 were identified by GC/MS for the presence of compound 1 and its metabolites, tempol-H and carboxylic acid (R1COOH), formed by hydrolysis of compound 1 by ocular esterases. Both the metabolites were observed but not Compound 1.
A sample of aqueous humor was freeze dried in a 10 mL amber colored glass vial containing a tiny magnetic bar. To this was added 1 mL of methylene chloride and the solution was stirred for two minutes and allowed to stand for five minutes. A 3 μL aliquot of the methylene chloride layer was injected into the GC column. The cyclopropanecarboxylic acid was detected by a mass spectrometer detector at 13.02 (retention time) with m/z=85 (GC model […] series II (both made by HP)). Agilent DB-5 column 25 m length, 0.2 mm diameter was used. Carrier gas He at 22 cm/sec. Inlet temperature was 250° C., detector 280° C. For every injection, the temperature was held at 35° C. for 5 minutes, then was increased to 240° C. at 10° C./min, and was held at 240° C. for 3 minutes. Splitless injection was used.

rabbit eyes = experiment: Tolerance in vivo in rabbit eyes; set-up: species or system rabbits
Procedure: Eyedrops containing 3.5% compound 1 were administered six times, at 1-hour intervals, to each eye of two conscious rabbits.
It was previously established that dosing rabbits with a 3% solution of Compound 1, 4 times daily, for one week caused no toxicity.

[3] = Aqueous solubility at room temperature; format: physicochemical; settings: thermodynamic from solid
Text: It may be preferred that at least 0.1% solubility is needed for an eye drop, even for a suspension formulation. Completely water-insoluble compounds may not be effective. Esters that are soluble in water (>0.1% weight by volume) are preferred. Esters with less than 0.1% solubility may be used in the form of suspensions or ointments or other formulations. […]

[4] = Measured octanol/water partition coefficient; format: physicochemical
Text: Esters are selected for these tests based on their calculated or measured octanol/water partition coefficient (P). Hydrophilic compounds such as tempol-H cannot penetrate the lipophilic epithelial layer of the cornea. Partition coefficients of tempol-H and esters that penetrate are as follows: […]

[5] = system: ARPE-19 cells that have accumulated A2E; experiment: Protection against A2E-mediated blue light damage in RPE cells; format: cell-based; settings: 24 hours pre-treatment; 430+/−20 nm light; MTT and two-color fluorescence assays; FIG. 3 and FIG. 4
Procedure: Materials and Methods: ARPE-19 cells that have accumulated A2E in culture were exposed to 430+/−20 nm light delivered from a halogen source. This wavelength of light is relevant since (i) the excitation maximum of A2E is approximately 430 nm, and (ii) light of this wavelength reaches the RPE in vivo while light of wavelengths […] by the cornea and lens. Cell death in blue light-illuminated A2E-laden RPE was compared with and without pre-treatment (24 hours) with tempol-H. The loss of cell viability was quantified by: • 1. A calorimetric microtiter assay based on ability of healthy metabolically active cells to cleave the yellow tetrazolium salt MTT to purple formazan crystals. Cell viability was assessed 24 hours after blue light illumination. Triplicate wells were assayed in each of 2 experiments. • 2. Two-color fluorescence assay in which the nuclei of all dead cells appear red due to staining by a membrane-impermeant dye (Dead Red nuclei acid stain, Molecular Probes) with the nuclei of all cells stained blue with DAPI. Cell viability was assessed 8 hours after blue light illumination. Replicates were assayed by counting cells within 5 microscopic fields within the area of illumination in each well and 3 wells were assayed per experiment. Data are based on of 3 experiments.

[6] = Drug penetration of organ cultured rat lenses (ESR); format: in vitro ADME, Sprague-Dawley rats; settings: for Concentration of tempol-H in lens water: Sprague-Dawley, rat, 4 mM
Procedure: Method: Rat lenses were cultured as follows: Rat lenses were obtained from Sprague-Dawley rats. The lenses were incubated in 24-well cluster dishes in modified TC-199 medium and were placed in a 37° C. incubator with a 95% air/5% CO2 atmosphere. The lenses were incubated in 2 ml of culture medium, which was adjusted to 300 milliosmoles (mOsm). […] In one experiment, lenses were incubated for 4 hours and dissected into epithelial, cortical and nuclear sections before analysis.

[7] = Absorption across the cornea: aqueous humor tempol-H after topical eye drops (ESR); format: in vivo, New Zealand White rabbits; settings: all time points (30, 60, 120 minutes) after topical 3.5% solution
Procedure: Groups of six New Zealand White rabbits were used in the study to evaluate the absorption of tempol-H and compound 1. The test compounds were prepared in sterile saline solutions at a concentration of 3.5% weight by volume. The animals were held in restraining boxes during instillation of eye drops, 50 μL in each eye, using a micropipette. After dosing, the eye was gently held closed for 60 seconds. The rabbits were dosed twice daily for 4 consecutive days. On the fifth day, rabbits were dosed once and then euthanized at 30 minutes post dose (2 rabbits), 60 minutes post-dose (2 rabbits) and at 120 minutes post-dose (2 rabbits). Immediately after euthanization, aqueous humor was collected from each rabbit. The aqueous concentration of tempol-H in each sample was measured using the electron spin resonance (ESR) method.

[8] = 30 minutes post-dose, single drop (40 ul) of 3% solution, total radioactivity

## CC1(C)CC(OC(=O)c2ccco2)CC(C)(C)N1O.Cl
other
  melting point: 209.4 to 210.4 °C

## CCOCC(C)(C)C(=O)OC1CC(C)(C)N(O)C(C)(C)C1.Cl
other
  melting point: 140 to 142 °C (dec.)

## CC1(C)CC(OC(=O)C2CC2)CC(C)(C)N1O.Cl [Compound 1, 1-hydroxy-4-cyclopropanecarbonyloxy-2,2,6,6-tetramethylpiperidine Hydrochloride]
[1]; [8]
  Peak concentration, Blood: 240 nanogram equivalents/gram
  Peak concentration, Plasma: 360 nanogram equivalents/gram
  Peak tissue concentration, Aqueous: 5930 nanogram equivalents/gram
  Peak tissue concentration, Cornea: 13090 nanogram equivalents/gram
  Peak tissue concentration, Lens: 310 nanogram equivalents/gram
  Peak tissue concentration, Vitreous: 150 nanogram equivalents/gram
[1]; all tissues, FIG. 2
  Radioactivity in tissues at 24 hours post-dose: still measurable in all tissues
[2]
  Conversion to metabolites (tempol-H and carboxylic acid) in aqueous humor: completely converted to its metabolites
Rabbit eyes; 3% solution, 4 times daily, for one week
  Toxicity: no toxicity
Rabbit eyes; eyedrops 3.5%, six times at 1-hour intervals, each eye of two conscious rabbits
  Ocular tolerance: well tolerated and no adverse findings were noted
[3]; 0.01 M acetate buffer, pH 4.8, aqueous buffer, 0.01 M Acetate buffer at pH 4.8, room temperature
  solubility: 68.6 mg/mL
[3]; 0.01 M citrate buffer, pH 4.8, aqueous buffer, 0.01 M Citrate buffer at pH 4.8, room temperature
  solubility: 71.1 mg/mL
[3]; 0.9% sodium chloride, saline or isotonic, room temperature
  solubility: 40.5 mg/mL
[3]; water with 1% w/v glycerin, water, Water + 1% w/v glycerin, room temperature
  solubility: 62.2 mg/mL
[3]; water with 1% w/v propylene glycol, water, Water + 1% w/v propylene glycol, room temperature
  solubility: 63.8 mg/mL
[3]; water, room temperature
  solubility: 74.9 mg/mL

## CC(C)(CO)C(=O)OC1CC(C)(C)N(O)C(C)(C)C1 [Example 10, 1-hydroxy-4-(3′-hydroxy-2′,2′-dimethyl)propanecarbonyloxy-2,2,6,6-tetramethylpiperidine Hydrochloride]
[3]; water, room temperature
  solubility: > 35 mg/mL

## CC1(C(=O)OC2CC(C)(C)N(O)C(C)(C)C2)CC1.Cl [Example 12, 1-hydroxy-4-(1-methyl-cyclopropane)carbonyloxy-2,2,6,6-tetramethylpiperidine Hydrochloride]
[3]; water, room temperature
  solubility: ≥ 1 mg/mL
other
  melting point: 215 to 220 °C (dec.)

## CC1(C)CC(OC(=O)C2CCOC2)CC(C)(C)N1O.Cl (stereo not drawn) [Example 16, 1-hydroxy-4-(3′-tetrahydrofuran)carbonyloxy-2,2,6,6-tetramethylpiperidine Hydrochloride]
[3]; water, room temperature
  solubility: > 35 mg/mL

## CC1(C)CC(O)CC(C)(C)N1O [Tempol-H, 1,4-dihydroxy-2,2,6,6-tetramethylpiperidine]
[4]
  P (measured): 0.5
[5]
  Protection against the death of blue light-illuminated A2E-laden RPE: dose-dependent protection; also recorded: protect
[6]; 1 h
  Concentration of tempol-H in lens water: 400 µM
[6]; 2 h
  Concentration of tempol-H in lens water: 800 µM
[6]; 4 h
  Concentration of tempol-H in lens water: 1000 µM
[7]
  Aqueous humor levels of tempol-H: below detectable limits

## CC1(C)CC(O)CC(C)(C)N1[O] [tempol]
[6]; 4-hour incubation with tempol
  Share in the oxidized form in the epithelium: about 5%
[6]; after incubation with 4.0 mM tempol
  Oxidized form tempol found in the lens: ≤ 5%
